# Measured values taken from US10160705B2, “Class of HDAC inhibitors expands the renal progenitor cells population and improves the rate of recovery from acute kidney injury” (University of Pittsburgh—Of the Commonwealth System of …, priority 2011, dated 2018).
# Columns and labels:
# human HDACs = experiment: Fluorescence histone deacetylation assay with HeLa cell nuclear extract; assay type: biochemical
# Description: To evaluate this in vitro, the deacetylation of a fluorescent peptide substrate was measured in the presence of human HDACs.
# In vitro HDAC activity assays were performed using a fluorescence HDAC assay kit (Active Motif) according to the manufacturer's instructions. For maintaining compound solubility at 5 mM, the final DMSO concentration in all assay wells was increased to 5%. Fluorescence was detected using an M5 Plate Reader ([…])
# kidney field = experiment: In situ hybridization for kidney markers (pax2a, pax8, cdh17, wt1a, slc4a4, slcl2a1); assay type: in vivo, zebrafish; settings: 3 μM
# Description: PTBA was synthesized as described below. Hydroxyurea and aphidicolin were obtained from Sigma-Aldrich.
# In situ hybridization and immunocytochemistry: In situ hybridization was performed as previously described with some modifications.142 Hybridization temperature was 65° C. Embryos were blocked in 2% blocking reagent (Roche) with 5% sheep serum in MAB (100 mM maleic acid and 150 mM NaCl [pH 7.5]). Whole-mount immunocytochemistry with 1:25 mouse anti-α6F antibody (Developmental Studies Hybridoma Bank) and 1:100 Cy3 secondary antibody (Jackson ImmunoResearch) was performed as described previously.108 Embryos were embedded in JB-4 for sectioning per the manufacturer's instructions (Polysciences), sectioned at 5 μm, and mounted with Cytoseal 60 (Richard-Allan Scientific).
# histone H4 = experiment: Histone H4 hyperacetylation Western blot in treated embryos; assay type: in vivo, zebrafish; settings: 24 hpf embryos, 6 hours; 3 μM PTBA, 25 μM PBA, 200 nM TSA
# Description: It was next determined whether the HDACi function of PTBA was quantifiable in vivo. 24 hpf embryos were treated with 3 μM PTBA, 25 μM PBA, or 200 nM TSA for 6 hours. Protein extracts were prepared and immunoblotted with an anti-hyperacetylated histone H4 antibody. […] Furthermore, increasing the compound concentration caused a corresponding increase in hyperacetylation (FIG. 21).
# SDS-PAGE and Western blotting were performed as described previously with some modifications (Noel, E. S. et al. Organ-specific requirements for Hdac1 in liver and pancreas formation. Dev Biol 322, 237-250, (2008)). Proteins were separated on 18% SDS-PAGE gels. Membranes were incubated at 4° C. overnight with 1:1000 anti-hyperacetylated histone H4 antibody (06-946, Millipore) or 1:1000 anti-α-tubulin antibody (Sigma-Aldrich) in PBT containing 5% nonfat milk.
# zebrafish embryos = experiment: Phenotypic screen for edema and survival in zebrafish larvae at 72 hpf
# Method in brief: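 Embryos (5/well in primary screen; 12–30 per group otherwise) exposed from 2 hpf in E3 medium with 0.5% DMSO, 10 μM in screen or stated concentrations, 28.5 °C for 70 h. At 72 hpf, edema scored by phenotype classification (dominant phenotype in ≥4/5 embryos in screen); survival vs 0 μM by two-tailed Fisher's exact test (p<0.05).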
# [1] = number of larvae (of 36), 3 μM from 2 hpf, scored at 72 hpf
smiles,measurement,setting,value
"O=C(O)CCCSc1ccccc1 [UPHD-00020, 4-(phenylthio)butanoic acid (PTBA)]","HDAC activity elicited by 10 μg HeLa extract, percent of the control value",human HDACs; 5 mM compound,30%
same,reduction of HDAC activity,human HDACs; millimolar concentrations,70%
same,expansion of slc4a4 (proximal tubule),kidney field; 48 hpf,92%
same,pax2a expression at 24 hpf,kidney field; treatment beginning at 16.5 hpf (15 somites),no kidney field expansion
same,pax2a expression at 24 hpf,kidney field; treatment initiated between 2 hpf and 14 hpf (10 somites),expanded pax2a expression
same,histone H4 hyperacetylation,histone H4,Histone H4 hyperacetylation was observed
same,larvae with edemic phenotype / pericardial edema by 72 hpf,"zebrafish embryos; 3 μM PTBA, 25 μM PBA, 200 nM TSA",92%
same,phenotype in initial chemical screen,"zebrafish embryos; 10 μM, larvae at 72 hpf",pericardial edema
same,survival to 72 hpf,"zebrafish embryos; 10 μM, n=90",died before 72 hpf
same,Dead,zebrafish embryos; [1],1
same,Edemic 1 (E1),zebrafish embryos; [1],13
same,Edemic 2 (E2),zebrafish embryos; [1],17
same,Edemic 3 (E3),zebrafish embryos; [1],5
same,Wild-type (WT),zebrafish embryos; [1],0
